From patent US20250024846A1, “DEVELOPMENT OF FOOD-GRADE FUNGAL FERMENTATES WITH ANTIMICROBIAL ACTIVITY AND THE USE THEREOF” (Wisconsin Alumni Research Foundation, priority 2021, published 2025)

System: Staphylococcus aureus
Experiment: Agar diffusion disc test (zone of inhibition)
Format: cell-based
Conditions: positive control, 100 μg/mL (FIG. 2b)
Method: Extraction of fermentates. Screening of the antimicrobial activity of NP extracts produced via liquid-liquid extraction with various organic solvents was performed. The tested organic solvents (i.e., ethyl acetate, chloroform, diethyl ether, dichloromethane, tetrahydrofuran, toluene, EMW (mixture of ethyl acetate:methanol:water), CEF (mixture of chloroform:ethyl acetate:formic acid), and BEA (mixture of benzene:ethanol:ammonia hydroxide)) are described in Table 2. 20 mL of NP1 or NP2 was reacted with 20 mL of an organic solvent in 50 mL conical tubes and incubated overnight at 25±2° C. with shaking at 150 rpm. The mixtures were centrifuged at 5000 g and the organic layer was transferred to a new 50 mL conical tube. The extracts were evaporated until dry under gentle airflow. Then, the extracts were reconstituted in 1 mL of methanol and filtered with a sterile 0.45 μm filtration unit. The methanol solution was tested for antimicrobial activity.

For `CC1(C)S[C@@H]2[C@H](NC(=O)[C@H](N)c3ccccc3)C(=O)N2[C@H]1C(=O)O` [ampicillin], the zone of inhibition at 100 µg/mL was roughly 30 mm.
